Measured values published in patent US20130184273A1, “BICYCLIC PYRIMIDINES” (Bayer Intellectual Property GmbH, priority 2010, published 2013).

How the values were obtained:
[1] = target: T1, His-tagged human recombinant kinase full-length Akt1 (Homo sapiens, UniProt P31749); assay: Akt1 kinase assay (TR-FRET); type: biochemical; details: 10 μM ATP, 60 min at 22° C., read-out: Akt1, median IC50
T1 construct: His-tagged human recombinant kinase full-length Akt1; His; purchased Invitrogen PV 3599; host or cells: insect cells
T1 sequence (P31749 whole entry): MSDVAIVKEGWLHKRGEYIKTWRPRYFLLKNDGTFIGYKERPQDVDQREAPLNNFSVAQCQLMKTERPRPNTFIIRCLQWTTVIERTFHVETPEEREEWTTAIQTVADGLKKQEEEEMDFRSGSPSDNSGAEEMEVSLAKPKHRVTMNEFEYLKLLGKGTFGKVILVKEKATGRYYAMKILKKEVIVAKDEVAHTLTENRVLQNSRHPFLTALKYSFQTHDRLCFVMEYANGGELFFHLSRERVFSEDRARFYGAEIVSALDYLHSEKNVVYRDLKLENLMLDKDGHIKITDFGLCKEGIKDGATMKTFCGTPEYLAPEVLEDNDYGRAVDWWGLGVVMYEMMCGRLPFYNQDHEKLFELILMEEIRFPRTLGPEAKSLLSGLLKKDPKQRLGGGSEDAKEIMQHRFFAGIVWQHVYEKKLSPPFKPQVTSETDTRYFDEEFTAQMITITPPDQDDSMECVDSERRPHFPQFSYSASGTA
Description: Akt1 inhibitory activity of compounds of the present invention was quantified employing the Akt1 TR-FRET assay as described in the following paragraphs.
(§1) His-tagged human recombinant kinase full-length Akt1 expressed in insect cells was purchased form Invitrogen (part number PV 3599). As substrate for the kinase reaction the biotinylated peptide biotin-Ahx-KKLNRTLSFAEPG (C-terminus in amide form) was used which can be purchased e.g. from the company Biosynthan GmbH (Berlin-Buch, Germany).
(§2) For the assay 50 nl of a 100 fold concentrated solution of the test compound in DMSO was pipetted into a black low volume 384well microtiter plate (Greiner Bio-One, Frickenhausen, Germany), 2 μl of a solution of Akt1 in assay buffer [50 mM TRIS/HCl pH 7.5, 5 mM MgCl2, 1 mM dithiothreitol, 0.02% (v/v) Triton X-100 (Sigma)] were added and the mixture was incubated for 15 min at 22° C. to allow pre-binding of the test compounds to the enzyme before the start of the kinase reaction. Then the kinase reaction was started by the addition of 3 μl of a solution of adenosine-tri-phosphate (ATP, 16.7 μM=>final conc. in the 5 μl assay volume is 10 μM) and substrate (1.67 μM=>final conc. in the 5 μl assay volume is 1 μM) in assay buffer and the resulting mixture was incubated for a reaction time of 60 min at 22° C. The concentration of Akt1 in the assay was adjusted depending of the activity of the enzyme lot and was chosen appropriate to have the assay in the linear range, typical enzyme concentrations were in the range of about 0.05 ng/μl (final conc. in the 5 μl assay volume).
The reaction was stopped by the addition of 5 μl of a solution of HTRF detection reagents (200 nM streptavidine-XL665 [Cisbio] and 1.5 nM anti-phosho-Serine antibody [Millipore, cat. #35-001] and 0.75 nM LANCE Eu-W 1024 labeled anti-mouse IgG antibody [Perkin Elmer]) in an aqueous EDTA-solution (100 mM EDTA, 0.1% (w/v) bovine serum albumin in 50 mM HEPES/NaOH pH 7.5). The resulting mixture was incubated 1 h at 22° C. to allow the binding of the biotinylated phosphorylated peptide to the streptavidine-XL665 and the antibodies. Subsequently the amount of phosphorylated substrate was evaluated by measurement of the resonance energy transfer from the anti-mouse-IgG-Eu-Chelate to the streptavidine-XL665. Therefore, the fluorescence emissions at 620 nm and 665 nm after excitation at 350 nm was measured in a HTRF reader, e.g. a Rubystar (BMG Labtechnologies, Offenburg, Germany) or a Viewlux (Perkin-Elmer). The ratio of the emissions at 665 nm and at […] was taken as the measure for the amount of phosphorylated substrate. The data were normalised (enzyme reaction without inhibitor=0% inhibition, all other assay components but no enzyme=100% inhibition).

[2] = target: T2, His-tagged human recombinant kinase full-length Akt2 (Homo sapiens, UniProt P31751); assay: Akt2 kinase assay (TR-FRET); type: biochemical; details: 10 μM ATP, 60 min at 22° C., read-out: Akt2, median IC50
T2 construct: His-tagged human recombinant kinase full-length Akt2; His; purchased Invitrogen PV 3975; host or cells: insect cells
T2 sequence (P31751 whole entry): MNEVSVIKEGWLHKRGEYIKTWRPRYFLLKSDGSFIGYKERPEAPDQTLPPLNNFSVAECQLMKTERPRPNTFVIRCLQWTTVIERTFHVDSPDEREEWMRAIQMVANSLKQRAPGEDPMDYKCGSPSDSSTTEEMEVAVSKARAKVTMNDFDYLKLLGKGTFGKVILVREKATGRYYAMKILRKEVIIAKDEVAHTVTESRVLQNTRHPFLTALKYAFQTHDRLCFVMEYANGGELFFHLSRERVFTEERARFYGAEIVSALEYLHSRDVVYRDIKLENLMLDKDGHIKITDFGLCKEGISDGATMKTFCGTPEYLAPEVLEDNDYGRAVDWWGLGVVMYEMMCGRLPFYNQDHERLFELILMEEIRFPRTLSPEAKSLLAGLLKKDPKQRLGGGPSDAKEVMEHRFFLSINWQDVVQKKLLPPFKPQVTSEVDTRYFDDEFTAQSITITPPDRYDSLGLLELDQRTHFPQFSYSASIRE
Description: Akt2 inhibitory activity of compounds of the present invention was quantified employing the Akt2 TR-FRET assay as described in the following paragraphs.
as §1, with “Akt2” for “Akt1”, “cells and activated by PDK1” for “cells”, “3975).” for “3599).”
as §2, with “Akt2” for “Akt1”, “0.2” for “0.05”
The reaction was stopped by the addition of 5 μl of a solution of HTRF detection reagents (200 nM streptavidine-XL665 [Cisbio] and 1.5 nM anti-phosho-Serine antibody [Millipore, cat. #35-001] and 0.75 nM LANCE Eu-W 1024 labeled anti-mouse IgG antibody [Perkin Elmer]) in an aqueous EDTA-solution (100 mM EDTA, 0.1% (w/v) bovine serum albumin in 50 mM HEPES/NaOH pH 7.5).
The resulting mixture was incubated 1 h at 22° C. to allow the binding of the biotinylated phosphorylated peptide to the streptavidine-XL665 and the antibodies.
Subsequently the amount of phosphorylated substrate was evaluated by measurement of the resonance energy transfer from the anti-mouse-IgG-Eu-Chelate to the streptavidine-XL665. Therefore, the fluorescence emissions at 620 nm and 665 nm after excitation at 350 nm was measured in a TR-FRET reader, e.g. a Rubystar (BMG Labtechnologies, Offenburg, Germany) or a Viewlux (Perkin-Elmer). The ratio of the emissions at 665 nm and at […] was taken as the measure for the amount of phosphorylated substrate. The data were normalised (enzyme reaction without inhibitor=0% inhibition, all other assay components but no enzyme=100% inhibition).

| SMILES | IC50 [1] [µM] | IC50 [2] [µM] |
| --- | --- | --- |
| Cc1nc2nc(-c3ccc(C4(N)CCCC4)cc3)c(-c3ccccc3)cn2n1 [Example 1-1, 1-[4-(2-methyl-6-phenyl-[1,2,4]triazolo[1,5-a]pyrimidin-5-yl)-phenyl]-cyclopentylamine] | 2.57 | 3.26 |
| Cc1nc2nc(-c3ccc(C4(N)CC4)cc3)c(-c3ccccc3)cn2n1 [Example 1-2, 1-[4-(2-methyl-6-phenyl-[1,2,4]triazolo[1,5-a]pyrimidin-5-yl)-phenyl]-cyclopropylamine] | 3.01 | 2.22 |
| Cc1nc2nc(-c3ccc(C4(N)CCC4)cc3)c(-c3ccccc3)c(C)n2n1 [Example 1-3, 1-[4-(2,7-dimethyl-6-phenyl-[1,2,4]triazolo[1,5-a]pyrimidin-5-yl)-phenyl]-cyclobutylamine] | 0.526 | 1.02 |
| NC1(c2ccc(-c3nc4nccn4cc3-c3ccccc3)cc2)CCC1 [Example 2-0, 1-[4-(6-Phenyl-imidazo[1,2-a]pyrimidin-7-yl)-phenyl]-cyclobutylamine] | 2.22 | 1.64 |
| NC1(c2ccc(-c3nc4nccn4c(NC4CC4)c3-c3ccccc3)cc2)CCC1 [Example 2-2, {7-[4-(1-Amino-cyclobutyl)-phenyl]-6-phenyl-imidazo[1,2-a]pyrimidin-5-yl)-cyclopropylamine] | 2.05 | 1.58 |
| NC1(c2ccc(-c3nc4nccn4c(N4CCOCC4)c3-c3ccccc3)cc2)CCC1 [Example 2-3, 1-[4-(5-Morpholino-4-yl-6-phenyl-imidazo[1,2-a]pyrimidin-7-yl)phenyl]-cyclobutylamine] | 13.1 | 7.47 |
| COC[C@H](C)Nc1c(-c2ccccc2)c(-c2ccc(C3(N)CCC3)cc2)nc2nccn12 [Example 2-4, {7-[4-(1-Amino-cyclobutyl)-phenyl]-6-phenyl-imidazo[1,2-a]pyrimidin-5-yl}-((S)-2-methoxy-1-methyl-ethyl)-amine] | 10.6 | 1.27 |
| COC[C@H](C)Nc1c(-c2ccccc2)c(-c2ccc(C3(N)CCC3)cc2)nc2nc(C)cn12 [Example 2-6, {7-[4-(1-Amino-cyclobutyl)-phenyl]-2-methyl-6-phenyl-imidazo[1,2-a]pyrimidin-5-yl}-((S)-2-methoxy-1-methyl-ethyl)-amine] | 13 | 2.86 |
| NC1(c2ccc(-c3nc4nc(-c5ccccn5)nn4c(NC4CC4)c3-c3ccccc3)cc2)CCC1 [Example 3-1, {5-[4-(1-Aminocyclobutyl)-phenyl]-6-phenyl-2-pyridine-2-yl-[1,2,4]triazolo[1,5-a]pyrimidin-7-yl}-cyclopropylamine] | 2.38 | 2.32 |
| NC1(c2ccc(-c3nc4nc(-c5ccccn5)nn4c(N4CCOCC4)c3-c3ccccc3)cc2)CCC1 [Example 3-2, 1-[4-(7-Morpholine-4-yl-6-phenyl-2-pyridine-2-yl-[1,2,4]triazolo[1,5-a]pyrimidin-5-yl)-phenyl]-cyclobutylamine] | ≥ 20 | 6.64 |
| CCOC(=O)C1(Nc2c(-c3ccccc3)c(-c3ccc(C4(N)CCC4)cc3)nc3nc(C)nn23)CCC1 [Example 3-3, 1-{5-[4-(1-Aminocyclobutyl)-phenyl]-2-methyl-6-phenyl-[1,2,4]triazolo[1,5-a]pyrimidin-7-ylamino}-cyclobutanecarboxylic acid ethyl ester] | ≥ 20 | 1.12 |
| COCCCNc1c(-c2ccccc2)c(-c2ccc(C3(N)CCC3)cc2)nc2nc(C)nn12 [Example 3-4, {5-[4-(1-Amino-cyclobutyl)-phenyl]-2-methyl-6-phenyl-[1,2,4]triazolo[1,5-a]pyrimidin-7-yl}-(3-methoxy-propyl)-amine] | 18.2 | 9.35 |
| Cc1nc2nc(-c3ccc(C4(N)CCC4)cc3)c(-c3ccccc3)c(NCCc3ccc(F)cc3)n2n1 [Example 3-5, {5-[4-(1-Amino-cyclobutyl)-phenyl]-2-methyl-6-phenyl-[1,2,4]triazolo[1,5-a]pyrimidin-7-yl}-[2-(4-fluoro-phenyl)-ethyl]-amine] | 18.8 | 3.56 |
